Results from US20140079836A1, “METHODS AND COMPOSITIONS FOR ALTERING HEALTH, WELLBEING, AND LIFESPAN” (LifeSpan Extension, LLC, priority 2008, published 2014).

System: Drosophila Melanogaster
Assay: Drosophila survival/longevity after antioxidant media
Type: in vivo
Experimental: Drosophila cultures: A wingless variant of Drosophila Melanogaster was purchased from Carolina Biological Supply. These flies were fed nutrient media (Formula 4-24) and experimental flies were collected within 18 hours after hatching to ensure the females were virgin. Culture media: Flies were given a combination of the following: 1) Formula 4-24 without blue coloring for breeding and post exposure to antioxidants. […] 4) 20% sucrose solution on filter paper following AOX incubation to serve as a low nutrient media and known lifespan shortening agent. […] The flies remain in the antioxidant media for 12 days. […] All the flies are examined daily and media changed as required until all the flies have died. The date (post 12 day antioxidant incubation) is recorded. Lifespan results: The cumulative average lifespan of all flies for each group are then computed and compared against the cumulative average of the control (untreated) flies to determine if the Antioxidants increase lifespan. The average lifespan increase is separated by sex as well as combined for both sexes. This lifespan extension is expressed as a percent increase or decrease over control values. Culture media: […] Experimental phase: […] Lifespan results: The cumulative average lifespan of all flies for each group are then computed and compared against the cumulative average of the control (untreated) flies to determine if the antioxidants increase lifespan. The average lifespan increase is separated by sex as well as combined for both sexes.

[1] = 0.01% antioxidant in media from hatching, antioxidant alone
[2] = 0.1% antioxidant in media from hatching, antioxidant alone
[3] = 1% antioxidant in media from hatching, antioxidant alone
[4] = 1% antioxidant media 12 days, then 20% Sucrose
[5] = 1% antioxidant media 12 days, then 20% Sucrose, vs 20% Sucrose
[6] = 1% antioxidant media 12 days, then H2O2 media
[7] = 1% antioxidant media 12 days, then H2O2 media, vs H2O2

SMILES: COC1=C(OC)C(=O)C(CCCCCCCCCCO)=C(C)C1=O [Idebenone, 6-(10-hydroxydecyl)-2,3-dimethoxy-5-methyl-1,4-benzoquin-one]
- average lifespan, Average of Both [1]: 23.4 days
- average lifespan, FEMALE [1]: 23.4 days
- average lifespan, Average of Both [2]: 10.2 days
- average lifespan, FEMALE [2]: 10.2 days
- average lifespan, Average of Both [3]: 10 days
- average lifespan, FEMALE [3]: 12.4 days
- average lifespan, MALE [3]: 8.1 days
- average lifespan, Average of Both [4]: 11.89 days
- average lifespan, FEMALE [4]: 11.7 days
- average lifespan, MALE [4]: 12.11 days
- % Change of lifespan over control, Average of Both [5]: +5%
- % Change of lifespan over control, FEMALE [5]: −4%
- % Change of lifespan over control, MALE [5]: +24%
- average lifespan, Average of Both [6]: 5.75 days
- average lifespan, FEMALE [6]: 5.50 days
- average lifespan, MALE [6]: 5.32 days
- % Change of lifespan over control, Average of Both [7]: +8%
- % Change of lifespan over control, FEMALE [7]: −7%
- % Change of lifespan over control, MALE [7]: +8%
